Data as given in patent US5441932A, “Sugar compounds for inhibition of the biosynthesis of sugar chains containing sialic acid” (priority 1992, dated 1995).
“Also recorded” adds a separate entry of the source.

Experiments:
[1] = Solubility (physical properties); assay type: physicochemical; conditions: qualitative, in words
[2] = molecular target: β-galactoside-α-2, 6-sialyltransferase; experiment: Inhibition of β-galactoside-α-2,6-sialyltransferase enzyme activity (biosynthesis of sugar chains containing sialic acid, test system of Paulson et al.); assay type: biochemical; conditions: β-galactoside-α-2,6-sialyltransferase 1×10^-6 units, 0.075 nmol CMP-14C sialic acid, 3 mM β-methyllactosaminide, pH 6.5, 37° C., 10 minutes; read-out: 50% activity inhibition concentration
Procedure: In other words, the tests were conducted using a test system of the biosynthesis of sialic acid-sugar chains containing sialic acid which was reported by Paulson et al.
A tester solution was prepared containing the following respective reagents in 50 μl of final contents:
100 mM sodium cacodylate buffer solution (pH 6.5);
0.075 nmol cytidine-monophosphate-14C sialic acid;
3 mM β-methyllactosaminide;
A specimen compound was added in 50 μl of the tester solution, and, with addition of 1×10^-6 units of β-galactoside-α-2, 6-sialyltransferase commercially available, the mixture was left to stand at 37° C. for 10 minutes. 1 ml of 5 mM phosphoric acid buffer solution was added to stop the reaction. Then the solution was passed through an anion-exchange resin column (Dowex-1X8, phosphoric acid type, 1 ml) to remove unreacted cytidine-monophosphate-14C sialic acid. Further, the column was washed with 1 ml of 5 mM phosphoric acid buffer solution to recover radioactive sialic acid-containing sugar chains. The radioactivity was measured by a liquid scintillation counter.
The thus-measured radioactivity was shown by percentage to the radioactivity of untreated section not including the specimen compound, which was defined as inhibition activity.

[3] = Stability in acid (physical properties); assay type: physicochemical

Molecule	Solubility [1]	IC50 [2] [µM]	Decomposition in acid [3]
CC(=O)N[C@H]1C(O)O[C@H](CO)[C@@H](O[C@@H]2O[C@H](C)[C@H](O)[C@H](O)[C@H]2O)[C@@H]1O (stereo partly drawn) [Sugar compound B, α- and β-2-acetamide-2-deoxy-4-O-(6-deoxy-β-D-galactopyranosyl)-D-glucose]	Soluble in water, alkaline solutions, acid solutions, various buffer solutions, methanol, and ethanol. Hardly soluble in hexane and in chloroform.		
CO[C@@H]1O[C@H](CO)[C@@H](O[C@@H]2O[C@H](C)[C@H](O)[C@H](O)[C@H]2O)[C@H](O)[C@H]1NC(C)=O [Sugar compound A, methyl-2-acetamide-2-deoxy-4-O-(6-deoxy-β-D-galactopyranosyl)-β-D-glucopyranoside]	Soluble in water, alkaline solutions, acid solutions, various buffer solutions, methanol, and ethanol. Hardly soluble in hexane and in chloroform.		
2-acetamide-2-deoxy-4-O-(6-deoxy-β-D-galactopyranosyl)-β-D-glucopyranosylated α2-macroglobulin [Sugar compound F]	Soluble in water and various buffer solutions. Hardly soluble in organic solvents.	1	
CO[C@@H]1O[C@H](COC(C)=O)[C@@H](O[C@@H]2O[C@H](COC3CCCCO3)[C@H](OC(C)=O)[C@H](OC(C)=O)[C@H]2OC(C)=O)[C@H](OC(C)=O)[C@H]1NC(C)=O (stereo partly drawn) [intermediate g, methyl-2-acetamide-3,6-di-O-acetyl-2-deoxy-4-O-(2,3,4-tri-O-acetyl-6-O-tetrahydropyranyl-β-D-galactopyranosyl)-β-D-glucopyranoside]	Soluble in chloroform, methanol, and ethanol. Hardly soluble in water and various buffer solutions.		
CO[C@@H]1O[C@H](COC(C)=O)[C@@H](O[C@@H]2O[C@H](CO)[C@H](OC(C)=O)[C@H](OC(C)=O)[C@H]2OC(C)=O)[C@H](OC(C)=O)[C@H]1NC(C)=O [intermediate f, methyl-2-acetamide-3,6-di-O-acetyl-2-deoxy-4-O-(2,3,4-tri-O-acetyl-β-D-galactopyranosyl)-β-D-glucopyranoside]	Soluble in chloroform, methanol, and ethanol. Hardly soluble in water and various buffer solutions.		
CO[C@@H]1O[C@H](COC(C)=O)[C@@H](O[C@@H]2O[C@@H]3COC(c4ccccc4)O[C@@H]3[C@H](OC(C)=O)[C@H]2OC(C)=O)[C@H](OC(C)=O)[C@H]1NC(C)=O (stereo partly drawn) [intermediate c, methyl-2-acetamide-3,6-di-O-acetyl-2-deoxy-4-O-(2,3-di-O-acetyl-4,6-O-benzylidene-β-D-galactopyranosyl)-β-D-glucopyranoside]	Soluble in chloroform, methanol, and ethanol. Hardly soluble in water and various buffer solutions.		
CO[C@@H]1O[C@H](CO)[C@@H](O[C@@H]2O[C@H](COC3CCCCO3)[C@H](O)[C@H](O)[C@H]2O)[C@H](O)[C@H]1NC(C)=O (stereo partly drawn) [Sugar compound G, methyl-2-acetamide-2-deoxy-4-O-(6-O-tetrahydropyranyl-β-D-galactopyranosyl)-β-D-glucopyranoside]	Soluble in water, alkaline solutions, acid solutions, various buffer solutions, methanol, and ethanol. Hardly soluble in hexane and in chloroform.		
C[C@H]1O[C@H](OP(=O)(O)OP(=O)(O)OC[C@H]2O[C@@H](n3ccc(=O)[nH]c3=O)[C@H](O)[C@@H]2O)[C@H](O)[C@@H](O)[C@H]1O [intermediate b, uridine 5'-diphosphate-6-deoxy-D-galactose]	Soluble in water, alkaline solutions, and various buffer solutions; also recorded: Hardly soluble in organic solvents		Decomposed in acid
CO[C@@H]1O[C@H](COC(C)=O)[C@@H](O[C@@H]2O[C@H](CSC(C)=O)[C@H](OC(C)=O)[C@H](OC(C)=O)[C@H]2OC(C)=O)[C@H](OC(C)=O)[C@H]1NC(C)=O [intermediate i, methyl-2-acetamide-3,6-di-O-acetyl-2-deoxy-4-O-(2,3,4-tri-O-acetyl-6-S-acetyl-6-deoxy-β-D-galactopyranosyl)-β-D-glucopyranoside]	Soluble in chloroform, methanol, and ethanol. Hardly soluble in water and various buffer solutions.		
CO[C@@H]1O[C@H](CO)[C@@H](O[C@@H]2O[C@H](CS)[C@H](O)[C@H](O)[C@H]2O)[C@H](O)[C@H]1NC(C)=O [Sugar compound H, methyl-2-acetamide-2-deoxy-4-O-(6-mercapto-β-D-galactopyranosyl)-β-D-glucopyranoside]	Soluble in water, alkaline solutions, acid solutions, various buffer solutions, methanol, and ethanol. Hardly soluble in hexane and in chloroform.		
CO[C@@H]1O[C@H](COC(C)=O)[C@@H](O[C@@H]2O[C@H](CO)[C@H](O)[C@H](OC(C)=O)[C@H]2OC(C)=O)[C@H](OC(C)=O)[C@H]1NC(C)=O [intermediate d, methyl-2-acetamide-3,6-di-O-acetyl-2-deoxy-4-O-(2,3-di-O-acetyl-β-D-galactopyranosyl)-β-D-glucopyranoside]	Soluble in chloroform, methanol, and ethanol. Hardly soluble in water and various buffer solutions.		
2-acetamide-2-deoxy-4-O-(6-deoxy-β-D-galactopyranosyl)-β-D-glucopyranosylated ovalbumin [Sugar compound C, sugar compound represented by the aforementioned formula (1) in which R^1 is ovalbumin and R^2 is hydrogen]		10	
2-acetamide-2-deoxy-4-O-( 6-deoxy-β-D-galactopyranosyl)-β -D-glucopyranosylated fetuin [Sugar compound D]	Soluble in water and various buffer solutions. Hardly soluble in organic solvents.	4.2	
CO[C@@H]1O[C@H](COC(C)=O)[C@@H](O[C@@H]2O[C@H](CO[Si](C)(C)C(C)(C)C)[C@H](OC(C)=O)[C@H](OC(C)=O)[C@H]2OC(C)=O)[C@H](OC(C)=O)[C@H]1NC(C)=O [intermediate e, methyl-2-acetamide-3,6-di-O-acetyl-2-deoxy-4-O-(2,3,4-tri-O-acetyl-6-O-t-butyldimethylsilyl-β-D-galactopyranosyl)-β-D-glucopyranoside]	Soluble in chloroform, methanol, and ethanol. Hardly soluble in water and various buffer solutions.		
CO[C@@H]1O[C@H](COC(C)=O)[C@@H](O[C@@H]2O[C@H](COS(=O)(=O)c3ccc(C)cc3)[C@H](OC(C)=O)[C@H](OC(C)=O)[C@H]2OC(C)=O)[C@H](OC(C)=O)[C@H]1NC(C)=O [intermediate h, methyl-2-acetamide-3,6-di-O-acetyl-2-deoxy-4-O-(2,3,4-tri-O-acetyl-6-O-p-toluenesulfonyl-β-D-galactopyranosyl)-β-D-glucopyranoside]	Soluble in chloroform, methanol, and ethanol. Hardly soluble in water and various buffer solutions.		
2-acetamide-2-deoxy-4-O-(6-deoxy-β-D-galactopyranosyl)-β-D-glucopyranosylated glycophorin (conjugate, UniProt P02724 20-150, looked up, glycosylated with fucosyl-GlcNAc disaccharide, sugar compound represented by the aforementioned formula (1) in which R^1 is glycophorin and R^2 is hydrogen) Glycophorin-A: LSTTEVAMHTSTSSSVTKSYISSQTNDTHKRDTYAATPRAHEVSEISVRTVYPPEEETGERVQLAHHFSEPEITLIIFGVMAGVIGTILLISYGIRRLIKKSPSDVKPLPSPDTDVPLSSVEIENPETSDQ	Soluble in water and various buffer solutions. Hardly soluble in organic solvents.	2.7	
2-acetamide-2-deoxy-4-O-(6-deoxy-β-D-galactopyranosyl)-β-D-glucopyranosylated ovalbumin (conjugate, UniProt P01012 2-386, looked up, glycosylated with fucosyl-GlcNAc disaccharide, sugar compound represented by the aforementioned formula (1) in which R^1 is ovalbumin and R^2 is hydrogen) Ovalbumin: GSIGAASMEFCFDVFKELKVHHANENIFYCPIAIMSALAMVYLGAKDSTRTQINKVVRFDKLPGFGDSIEAQCGTSVNVHSSLRDILNQITKPNDVYSFSLASRLYAEERYPILPEYLQCVKELYRGGLEPINFQTAADQARELINSWVESQTNGIIRNVLQPSSVDSQTAMVLVNAIVFKGLWEKAFKDEDTQAMPFRVTEQESKPVQMMYQIGLFRVASMASEKMKILELPFASGTMSMLVLLPDEVSGLEQLESIINFEKLTEWTSSNVMEERKIKVYLPRMKMEEKYNLTSVLMAMGITDVFSSSANLSGISSAESLKISQAVHAAHAEINEAGREVVGSAEAGVDAASVSEEFRADHPFLFCIKHIATNAVLFFGRCVSP	Soluble in water and various buffer solutions. Hardly soluble in organic solvents.		
